The test system of series [1] is nitrogen monoxide (NO) production due to IL-1β. The experiment in a line: NO production inhibitory action in IL-1β-stimulated rat liver cells (Griess method). It is filed as cell-based. The settings on record: IL-1β 1 nM, 8 hours; for IC50: nitrite by Griess method, read-out: IC50 value (drug concentration at NO production of 50%). The protocol: Liver cells were isolated from male Wistar rats (200 to 250 g, Charles River) by a collagenase perfusion method (collagenase: Wako Pure Chemicals). The isolated liver cells were suspended in a medium at 6×10^5 cells/mL, seeded in 35 mm plastic dishes (Falcon Plastic) (2 mL/dish), and cultured in an incubator with 5% CO2 at 37° C. Williams' Medium E (WE) containing 10% newborn calf serum, HEPES (5 mM), penicillin (100 U/mL), streptomycin (0.1 mg/mL), dexamethasone (10 nM), and insulin (10 nM) was used as the medium. After 5 hours, the medium was replaced with fresh WE free of any serum and hormone, and the cells were cultured overnight until before use of the cells for an experiment.
On day 1 after the start of the culture, cells were subjected to replacement with fresh WE free of any serum and hormone, and recombinant rat IL-1β (purity of 97% or more) (PeproTech, Rocky Hill, N.J., USA), and Pa5 extracted with methanol in Example 1 or negletein in the comparative example were added to the medium. In each medium, the concentration of IL-1β was 1 nM, the concentrations of Pa5 were 5, 10, and 20 μM, and the concentrations of negletein were 10, 20, and 40 μM (FIG. 1). The amount of NO in each medium was measured 8 hours after the addition of IL-1β, and Pa5 or negletein by a Griess method (Green L C et al, Anal Biochem 1982; 126: 131-138). More specifically, the amount of nitrite (stable metabolite of NO) in each medium was measured.
Liver cells originated from rats were cultured in like manner with Example 4. On day 1 after the start of the culture, the cells were subjected to replacement with fresh WE free of any serum and hormone, and recombinant rat IL-1β (similar to that in Example 4) and Pa9 extracted with methanol in Example 3 were added to the medium. In each medium, the concentration of IL-1β was 1 nM, and the concentrations of Pa9 were 10 μM, 50 μM, and 100 μM (FIG. 5). The amount of NO in each medium was measured 8 hours after the addition of IL-1β and Pa9 in like manner with Example 4.
In general terms: Griess reagent forms a coloured azo dye with nitrite.

Series [2] concerns rat liver cells. In words: LDH activity of medium (cytotoxicity). Type of series: cell-based. The settings on record: IL-1β 1 nM plus Pa5, 8 hours. Here is the method: Further, lactate dehydrogenase (LDH) activity was measured to investigate the cytotoxicity of Pa5. The lactate dehydrogenase (LDH) activity of each medium was measured using LDH Cytotoxicity Detection Kits (Takara Bio Inc.). LDH is an enzyme existing in a cell, and therefore migrates into a medium due to cell damage. Each medium was collected 8 hours after the addition of IL-1β, and Pa5 or negletein, and was used for measuring the activity. Actually, each sample (50 μl of medium) and Solution C (50 μl) in the kit were mixed and left standing at room temperature for 30 minutes, 1 M hydrochloric acid (25 μl) was added to stop the reaction, and the absorbance of the resultant at 490 nm was measured and compared with a calibration curve using LDH of known concentration to determine the LDH activity. The LDH activity of the whole cells on one dish (that is, whole-cell extract) was considered to be a positive control (positive control in FIG. 3), and was regarded as 100%. The medium was removed from each dish containing the liver cells, the cells were washed three times with phosphate buffered saline (PBS), then ultrasonically broken, and centrifuged at 10000×g for 3 minutes to then obtain a supernatant, which was used as a whole-cell extract, and the LDH activity of the cells was measured.

Series [3] relates to CINC-3. In words: cytokine/chemokine array (in vitro), CINC-3. The conditions noted are these: (+) IL-1β 1 nM, Pa5 20 μM. It is filed as cell-based, rat. The protocol:
(§1) In like manner with Example 4, liver cells were isolated from male Wistar rats by a collagenase perfusion method. The isolated liver cells were suspended in a medium (similar to that in Example 4) at 1.2×10^6 cells/mL, seeded in 35 mm plastic dishes (similar to those in Example 4) (1 mL/dish), and cultured in an incubator with 5% CO2 at 37° C. After 5 hours, the medium was replaced with fresh WE free of any serum and hormone, and the cells were cultured overnight until before use of the cells for an experiment.
(§2) On day 1 after the start of the culture, cells were subjected to replacement with fresh WE free of any serum and hormone, and IL-1β (similar to that in Example 4), and Pa5 extracted with methanol in Example 1 or Pa5′ extracted with methanol in Example 2 were added to the medium. The concentrations of IL-1β, Pa5, and Pa5′ in each medium were 1 nM, 20 μM, and 100 μM, respectively (Table 1). Then, the cells were cultured at 37° C., and the medium was collected 3 hours after the start of the culture. The collected medium was centrifuged for 1 minute at 5000 rpm to remove cellular debris, and the supernatant was used in an assay. The supernatant was preserved at −80° C. until performing the assay.
(§3) The productions of the various inflammatory cytokines/chemokines were measured according to an accompanying protocol using Rat Cytokine Antibody Array (R&D Systems) (http://www.rndsystems.com/product_detail_objectname_ratcytokinearray.aspx) capable of detecting 29 kinds of cytokines/chemokines in Proteome Profiler® Antibody Array. In the measurement, 1 mL of the supernatant of the medium obtained as described above was used.
(§4) In the above-described method, the 29 kinds of the cytokines/chemokines can be detected at once, and chemiluminescence on the filter of Proteome Profiler Antibody Array increases in proportion to the amount of each cytokine/chemokine. Thus, the chemiluminescence on the filter of Proteome Profiler Antibody Array was detected with LAS3000mini (GE Healthcare), subjected to densitometry analysis, and converted into a numeric value. The densitometry analysis was carried out with reference to http://www.hm6.aitai.ne.jp/˜maxcat/imageJ/technique.html#gels (the heading of “Analyzing Electrophoretic Gels”) using ImageJ software.

In series [4] the test system is VEGF (VEGF-A/Vasculotropin). In words: cytokine/chemokine array (in vitro), VEGF. The settings on record: (+) IL-1β 1 nM, Pa5 20 μM. It is filed as cell-based, rat. Here is the method:
as §1, §2, §3, §4

In series [5] the test system is Thymus Chemokine (CXCL7). In words: cytokine/chemokine array (in vitro), Thymus Chemokine. The conditions noted are these: (+) IL-1β 1 nM, Pa5 20 μM. It is filed as cell-based, rat. The protocol:
as §1, §2, §3, §4

Series [6] deals with IL-17. In words: cytokine/chemokine array (in vitro), IL-17. Type of series: cell-based, rat. The settings on record: (+) IL-1β 1 nM, Pa5 20 μM. Here is the method: as §1, §2, §3, §4
The subject of series [7] is various inflammatory cytokines/chemokines. In words: cytokine/chemokine arrays (in vitro), overall. It is filed as cell-based. The settings on record: rat liver cells, IL-1β 1 nM, Pa5 20 μM, 3 hours. The protocol:
In like manner with Example 4, liver cells were isolated from male Wistar rats by a collagenase perfusion method. The isolated liver cells were suspended in a medium (similar to that in Example 4) at 1.2×10^6 cells/mL, seeded in 35 mm plastic dishes (similar to those in Example 4) (1 mL/dish), and cultured in an incubator with 5% CO2 at 37° C. After 5 hours, the medium was replaced with fresh WE free of any serum and hormone, and the cells were cultured overnight until before use of the cells for an experiment. […]
The productions of the various inflammatory cytokines/chemokines were measured according to an accompanying protocol using Rat Cytokine Antibody Array (R&D Systems) (http://www.rndsystems.com/product_detail_objectname_ratcytokinearray.aspx) capable of detecting 29 kinds of cytokines/chemokines in Proteome Profiler® Antibody Array. […]
In the above-described method, the 29 kinds of the cytokines/chemokines can be detected at once, and chemiluminescence on the filter of Proteome Profiler Antibody Array increases in proportion to the amount of each cytokine/chemokine. Thus, the chemiluminescence on the filter of Proteome Profiler Antibody Array was detected with LAS3000mini (GE Healthcare), subjected to densitometry analysis, and converted into a numeric value. […]

The test system of series [8] is sICAM-1 (CD54). The experiment in a line: cytokine/chemokine array (in vitro), sICAM-1. It is filed as cell-based, rat. The conditions noted are these: (+) IL-1β 1 nM, Pa5 20 μM. Here is the method: as §1, §2, §3, §4
In series [9] the test system is MIG (CXCL9). In words: cytokine/chemokine array (in vitro), MIG. Type of series: cell-based, rat. The conditions noted are these: (+) IL-1β 1 nM, Pa5 20 μM. The protocol: as §1, §2, §3, §4
Series [10] relates to Fractalkine (CX3CL1). In words: cytokine/chemokine array (in vitro), Fractalkine. Type of series: cell-based, rat. The conditions noted are these: (+) IL-1β 1 nM, Pa5 20 μM. The protocol: as §1, §2, §3, §4
The test system of series [11] is CINC-2α/β. The experiment in a line: cytokine/chemokine array (in vitro), CINC-2α/β. Type of series: cell-based, rat. The settings on record: (+) IL-1β 1 nM, Pa5 20 μM. Here is the method: as §1, §2, §3, §4

As to `O=c1ccc2cc(O)c(O)cc2o1` [Pa9, esculetin], in [1], the IC50 was 32 µM. In [1] (Pa9 10, 50, 100 μM), the “production of NO due to IL-1β” value was “dose-dependently inhibited”.

Turning to `COc1cc2c(c(O)c1OC)OC(c1ccccc1)CC2=O` (stereo not shown) [Pa5, 8-hydroxy-6,7-dimethoxyflavanone], in [2], the “LDH activity of medium” value is reported as “equivalent to that in the case of adding IL-1β” and the “cytotoxicity (from LDH activity)” value is given as “no cytotoxicity”. Further, the “degree of NO production inhibitory action, comparison at the same addition concentration” value in series [1] (10 μM) was “higher than that of negletein”. Also, in series [1], the IC50 was 9 µM. The “production of NO due to IL-1β” value in series [1] (Pa5 5, 10, 20 μM) is “dose-dependently inhibited”. Further, the “CINC-3 (%)” value in series [3] (3 hours, (+) alone = 100.0) is reported as 0.6%. For the same compound, in [3] (medium at 3 hours), the “CINC-3 chemiluminescence densitometry, Average” value is reported as 17.1; the “CINC-3 chemiluminescence densitometry, first value” worked out at 16.1; the “CINC-3 chemiluminescence densitometry, second value” is listed as 18.1. Further, in series [4] (3 hours, (+) alone = 100.0), the “VEGF (VEGF-A/Vasculotropin) (%)” value was 29.0%. Also, in series [4] (medium at 3 hours), the “VEGF (VEGF-A/Vasculotropin) chemiluminescence densitometry, Average” value was 236.8; the “VEGF (VEGF-A/Vasculotropin) chemiluminescence densitometry, first value” is given as 241.4; the “VEGF (VEGF-A/Vasculotropin) chemiluminescence densitometry, second value” is listed as 232.3. In addition, in [5] (3 hours, (+) alone = 100.0), the “Thymus Chemokine (CXCL7) (%)” value is 0.0%. In addition, in series [5] (medium at 3 hours), the “Thymus Chemokine (CXCL7) chemiluminescence densitometry, Average” value worked out at 0.0; the “Thymus Chemokine (CXCL7) chemiluminescence densitometry, first value” was 0.0; the “Thymus Chemokine (CXCL7) chemiluminescence densitometry, second value” is given as 0.0. Moreover, in series [6] (3 hours, (+) alone = 100.0), the “IL-17 (%)” value came to 0.0%. In series [6] (medium at 3 hours), the “IL-17 chemiluminescence densitometry, Average” value was found to be 0.0; the “IL-17 chemiluminescence densitometry, first value” stood at 0.0; the “IL-17 chemiluminescence densitometry, second value” was found to be 0.0. In series [7], the “induction of various cytokines/chemokines” value is given as “strongly inhibit”. In addition, in series [8] (3 hours, (+) alone = 100.0), the “sICAM-1 (CD54) (%)” value worked out at 0.0%. In series [8] (medium at 3 hours), the “sICAM-1 (CD54) chemiluminescence densitometry, Average” value came to 0.0; the “sICAM-1 (CD54) chemiluminescence densitometry, first value” is on record as 0.0; the “sICAM-1 (CD54) chemiluminescence densitometry, second value” is 0.0. Also, the “MIG (CXCL9) (%)” value in series [9] (3 hours, (+) alone = 100.0) came out at 0.0%. In [9] (medium at 3 hours), the “MIG (CXCL9) chemiluminescence densitometry, Average” value came to 0.0; the “MIG (CXCL9) chemiluminescence densitometry, first value” is reported as 0.0; the “MIG (CXCL9) chemiluminescence densitometry, second value” was determined as 0.0. Further, the “Fractakine (CX3CL1) (%)” value in series [10] (3 hours, (+) alone = 100.0) worked out at 0.0%. In [10] (medium at 3 hours), the “Fractakine (CX3CL1) chemiluminescence densitometry, Average” value is listed as 0.0; the “Fractakine (CX3CL1) chemiluminescence densitometry, first value” is listed as 0.0; the “Fractakine (CX3CL1) chemiluminescence densitometry, second value” was 0.0. Also, the “CINC-2α/β (%)” value in series [11] (3 hours, (+) alone = 100.0) came out at 2.8%. Besides, in series [11] (medium at 3 hours), the “CINC-2α/β chemiluminescence densitometry, Average” value is 170.2; the “CINC-2α/β chemiluminescence densitometry, first value” worked out at 209.7; the “CINC-2α/β chemiluminescence densitometry, second value” worked out at 130.6.
